Measurements taken from the supplement of paper PMC10307832.

Key:
Assay in all cases: relative viability (nuclei count vs DMSO), 5 days (fraction); higher = more cells survive
[1] = tested on: HCC-44
Method in brief: (§1)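 Dosing by pin tool came one day after lung cancer cell lines were seeded in 1536-well plates, using either one drug or a fixed anchor-drug dose plus five library-drug doses (not always all listed) in √10 steps. After 5 days, nuclei were counted on 4× images. Relative viability is treated-well nuclei count divided by vehicle-well nuclei count, and values are medians of duplicate plates.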

[2] = tested on: NCI-H596
Method in brief: as §1

[3] = tested on: HCC-366
Method in brief: as §1

[4] = tested on: NCI-H647
Method in brief: as §1

[5] = tested on: NCI-H1944
Method in brief: as §1

[6] = tested on: NCI-H322M
Method in brief: as §1

[7] = tested on: NCI-H2023
Method in brief: as §1

[8] = tested on: NCI-H1734
Method in brief: as §1

[9] = tested on: NCI-H2228
Method in brief: as §1

[10] = tested on: NCI-H2087
Method in brief: as §1

[11] = tested on: PC-3 [JPC-3]
Method in brief: as §1

[12] = tested on: NCI-H1651
Method in brief: as §1

[13] = tested on: SK-LU-1
Method in brief: as §1

[14] = tested on: LOU-NH91
Method in brief: as §1

[15] = tested on: HCC-78
Method in brief: as §1

[16] = tested on: IA-LM
Method in brief: as §1

[17] = tested on: NCI-H2170
Method in brief: as §1

[18] = tested on: LK-2
Method in brief: as §1

[19] = tested on: NCI-H2085
Method in brief: as §1

[20] = tested on: NCI-H1437
Method in brief: as §1

[21] = tested on: EBC-1
Method in brief: as §1

[22] = tested on: ABC-1
Method in brief: as §1

[23] = tested on: PC-14
Method in brief: as §1

Cc1cn(-c2cc(NC(=O)c3ccc(C)c(Nc4nccc(-c5cccnc5)n4)c3)cc(C(F)(F)F)c2)cn1 [Nilotinib] + CS(=O)(=O)CCNCc1ccc(-c2ccc3ncnc(Nc4ccc(OCc5cccc(F)c5)c(Cl)c4)c3c2)o1 [Lapatinib] (partner 2 µM)
relative viability ([1]; first compound 0.001 µM): 0.994 | relative viability ([1]; first compound 0.003162 µM): 1.09 | relative viability ([1]; first compound 0.01 µM): 0.822 | relative viability ([1]; first compound 0.03162 µM): 0.966 | relative viability ([1]; first compound 0.1 µM): 0.869 | relative viability ([2]; first compound 0.001 µM): 1.01 | relative viability ([2]; first compound 0.003162 µM): 1.15 | relative viability ([2]; first compound 0.01 µM): 1.09 | relative viability ([2]; first compound 0.03162 µM): 0.984 | relative viability ([2]; first compound 0.1 µM): 0.88 | relative viability ([3]; first compound 0.001 µM): 0.907 | relative viability ([3]; first compound 0.003162 µM): 1.38 | relative viability ([3]; first compound 0.01 µM): 1.29 | relative viability ([3]; first compound 0.03162 µM): 0.984 | relative viability ([3]; first compound 0.1 µM): 0.191 | relative viability ([4]; first compound 0.001 µM): 0.978 | relative viability ([4]; first compound 0.003162 µM): 1.42 | relative viability ([4]; first compound 0.03162 µM): 0.672 | relative viability ([4]; first compound 0.1 µM): 0.723 | relative viability ([5]; first compound 0.001 µM): 0.894 | relative viability ([5]; first compound 0.003162 µM): 0.996 | relative viability ([5]; first compound 0.01 µM): 0.742 | relative viability ([5]; first compound 0.03162 µM): 1.03 | relative viability ([5]; first compound 0.1 µM): 0.389 | relative viability ([6]; first compound 0.001 µM): 0.557 | relative viability ([6]; first compound 0.003162 µM): 0.515 | relative viability ([6]; first compound 0.03162 µM): 0.596 | relative viability ([6]; first compound 0.1 µM): 0.649 | relative viability ([7]; first compound 0.001 µM): 0.702 | relative viability ([7]; first compound 0.003162 µM): 0.611 | relative viability ([7]; first compound 0.01 µM): 0.739 | relative viability ([7]; first compound 0.03162 µM): 0.775 | relative viability ([7]; first compound 0.1 µM): 0.15 | relative viability ([8]; first compound 0.001 µM): 1 | relative viability ([8]; first compound 0.003162 µM): 1.14 | relative viability ([8]; first compound 0.01 µM): 1.27 | relative viability ([8]; first compound 0.03162 µM): 0.808 | relative viability ([8]; first compound 0.1 µM): 0.517 | relative viability ([9]; first compound 0.001 µM): 1.03 | relative viability ([9]; first compound 0.003162 µM): 1.25 | relative viability ([9]; first compound 0.01 µM): 1.13 | relative viability ([9]; first compound 0.03162 µM): 1.01 | relative viability ([9]; first compound 0.1 µM): 0.285 | relative viability ([10]; first compound 0.001 µM): 0.62 | relative viability ([10]; first compound 0.003162 µM): 1.21 | relative viability ([10]; first compound 0.01 µM): 1.17 | relative viability ([10]; first compound 0.03162 µM): 0.686 | relative viability ([10]; first compound 0.1 µM): 0.289 | relative viability ([11]; first compound 0.001 µM): 0.44 | relative viability ([11]; first compound 0.003162 µM): 0.537 | relative viability ([11]; first compound 0.01 µM): 0.467 | relative viability ([11]; first compound 0.03162 µM): 0.542 | relative viability ([11]; first compound 0.1 µM): 0.282 | relative viability ([12]; first compound 0.001 µM): 0.815 | relative viability ([12]; first compound 0.003162 µM): 0.803 | relative viability ([12]; first compound 0.01 µM): 1.06 | relative viability ([12]; first compound 0.03162 µM): 0.737 | relative viability ([12]; first compound 0.1 µM): 0.359 | relative viability ([13]; first compound 0.001 µM): 0.769 | relative viability ([13]; first compound 0.003162 µM): 0.855 | relative viability ([13]; first compound 0.01 µM): 1.08 | relative viability ([13]; first compound 0.03162 µM): 0.558 | relative viability ([13]; first compound 0.1 µM): 0.6 | relative viability ([14]; first compound 0.001 µM): 0.76 | relative viability ([14]; first compound 0.003162 µM): 0.679 | relative viability ([14]; first compound 0.01 µM): 0.649 | relative viability ([14]; first compound 0.03162 µM): 0.761 | relative viability ([14]; first compound 0.1 µM): 0.747 | relative viability ([15]; first compound 0.001 µM): 0.889 | relative viability ([15]; first compound 0.003162 µM): 0.718 | relative viability ([15]; first compound 0.01 µM): 0.779 | relative viability ([15]; first compound 0.03162 µM): 0.491 | relative viability ([15]; first compound 0.1 µM): 0.571 | relative viability ([16]; first compound 0.003162 µM): 0.936 | relative viability ([16]; first compound 0.01 µM): 0.755 | relative viability ([16]; first compound 0.03162 µM): 0.459 | relative viability ([16]; first compound 0.1 µM): 0.794 | relative viability ([17]; first compound 0.001 µM): 0.26 | relative viability ([17]; first compound 0.003162 µM): 0.285 | relative viability ([17]; first compound 0.01 µM): 0.272 | relative viability ([17]; first compound 0.03162 µM): 0.28 | relative viability ([17]; first compound 0.1 µM): 0.268 | relative viability ([18]; first compound 0.001 µM): 0.854 | relative viability ([18]; first compound 0.003162 µM): 0.754 | relative viability ([18]; first compound 0.01 µM): 1.05 | relative viability ([18]; first compound 0.03162 µM): 0.875 | relative viability ([18]; first compound 0.1 µM): 0.822 | relative viability ([19]; first compound 0.001 µM): 0.822 | relative viability ([19]; first compound 0.003162 µM): 0.817 | relative viability ([19]; first compound 0.01 µM): 0.748 | relative viability ([19]; first compound 0.03162 µM): 0.66 | relative viability ([19]; first compound 0.1 µM): 0.599 | relative viability ([20]; first compound 0.001 µM): 0.687 | relative viability ([20]; first compound 0.003162 µM): 0.973 | relative viability ([20]; first compound 0.01 µM): 0.858 | relative viability ([20]; first compound 0.03162 µM): 0.614 | relative viability ([20]; first compound 0.1 µM): 0.203 | relative viability ([21]; first compound 0.001 µM): 0.208 | relative viability ([21]; first compound 0.003162 µM): 0.187 | relative viability ([21]; first compound 0.01 µM): 0.179 | relative viability ([21]; first compound 0.03162 µM): 0.186 | relative viability ([21]; first compound 0.1 µM): 0.162 | relative viability ([22]; first compound 0.001 µM): 0.925 | relative viability ([22]; first compound 0.003162 µM): 1.09 | relative viability ([22]; first compound 0.01 µM): 1.35 | relative viability ([22]; first compound 0.03162 µM): 0.955 | relative viability ([22]; first compound 0.1 µM): 0.952 | relative viability ([23]; first compound 0.001 µM): 0.328 | relative viability ([23]; first compound 0.003162 µM): 0.422 | relative viability ([23]; first compound 0.01 µM): 0.367 | relative viability ([23]; first compound 0.03162 µM): 0.318 | relative viability ([23]; first compound 0.1 µM): 0.277
